Measurements published in patent US5270310A, “N-aminoalkyl amide inhibitors of protein kinase C” (Sphinx Pharmaceuticals Corporation, priority 1991, dated 1993).

How the values were obtained:
[1] = biological target: protein kinase C (PKC); test: Protein Kinase C Inhibition; type: biochemical, rat
Procedure: The protein kinase C (PKC) assay is designed to duplicate the in vivo conditions required for protein kinase C function. Therefore, pH, salt and cofactor concentrations are similar to physiologic levels. Histone H1 (lysine rich) is used in the assay as the phosphorylation acceptor protein because it is readily available and serves as a good substrate for protein kinase C. The enzyme is prepared from rat brain and is purified to apparent homogeneity as determined by a single band on silver stained SDS-polyacrylamide. Studies on the mechanism of regulation of protein kinase C by phospholipids, DAG and Ca^+2 have been hampered by the physical properties of the lipid cofactors. In the screening assay, phosphatidylserine (PS) and DAG are co-sonicated to form unilamellar and multilamellar vesicles. The concentration of lipids in the assay are suboptimal to maximize the detection potential of the assay for inhibitors. […] The assay is started with the addition of enzyme and stopped after 10 min by the addition of 25% trichloroacetic acid (TCA) and 1.0 mg/ml bovine serum albumin (BSA). The radioactive histone product is retained and washed on glass fiber filters that allow the unreacted ^32 P-ATP to pass through. The amount of phosphorylation is determined by the radioactivity measured in a scintillation counter. Controls are included in every assay to measure background activity in the absence of enzyme, activity in the absence of lipids and the maximum enzyme activity with saturating levels of the activator lipids.
Both the free base and the HCl salt were tested.

[2] = biological target: T1, protein kinase (PKA), catalytic subunit (Homo sapiens, UniProt P17612); test: cAMP-Dependent Protein Kinase (PKA) Assay; type: biochemical; settings: free base
T1 construct: purchased Sigma Chemical Company, St. Louis, Mo
Procedure: Compound found to be inhibitors of protein kinase C are tested for inhibitory activity against protein kinase (PKA). This enzyme, like protein kinase C, plays an important role in cell-cell communication and is activated by a second messenger, cAMP. Secondary screening against PKA is useful for ascertaining the selectivity of the compounds of the invention. The catalytic subunit of PKA (Sigma Chemical Company, St. Louis, Mo.) is mixed with buffer before addition of the inhibitor in dimethylsulfoxide (DMSO). The assay is started by the addition of 32P-ATP and the reaction is allowed to proceed for 10 min before stopping with 25% trichloroacetic acid (TCA) and 1.0 mg/ml bovine serum albumin (BSA). The phosphorylated protein is isolated by filtration and the radioactivity is counted in a beta scintillation counter.

[3] = tested on: MCF-7 human breast tumor cell line; test: Human Tumor Cell Growth Inhibition, MCF-7; type: cell-based; settings: Homo sapiens, MCF7; 3H-thymidine incorporation; value outside parentheses (not salt)
Procedure: MCF-7 a human breast tumor cell line and MCF-7/ADR an adriamycin resistant line of MCF-7 cells were obtained from the National Cancer Institute, Frederick, Md. […] Human tumor cells are trypsinized (0.05% trypsin, GIBCO), counted with a hemacytometer and seeded at a concentration of 10,000 cells/well in a 96 well microtiter plate. After allowing cells to attach to the surface overnight, the culture medium is aspirated and replaced with 100 μl of fresh medium. Test agents are diluted to determine dose response at 2× final concentration and added in quadruplicate at 100 μl/well to bring the total volume of each well to 200 μl. The microtiter plate is then incubated at 37° C. 5% CO2 overnight (18-24 hrs) before ^3 H-thymidine is added at a concentration of 0.5 μCi/well in 50 μl culture medium. The plate is incubated again for 4 hrs under the same conditions as above. Supernatant is then aspirated and 50 μl trypsin (0.05%, GIBCO) is added to each well. Cells are checked microscopically to determine detachment from surfaces, and plates are then harvested with a cell harvester (PHD, Cambridge Technology, Inc.) Filter papers corresponding to wells are placed in scintillation vials and counted to determine the amount of ^3 H-thymidine incorporated by the cells. Test agent response is compared to a positive control of cell wells with culture media only to determine the IC50. IC50 is the concentration of test compound required to inhibit fifty per cent of the incorporation of ^3 H-thymidine into proliferating cells not exposed to test agent. Uptake of ^3 H-thymidine is a standard test for measuring the metabolism of cells. Cells which are actively proliferating take up ^3 H-thymidine, whereas cells that are not proliferating take up ^3 H-thymidine at much slower rates or not at all. Test agents that inhibit the uptake of ^3 H-thymidine thus slow the growth of cells.

[4] = tested on: MCF-7/ADR adriamycin resistant line of MCF-7 cells; test: Human Tumor Cell Growth Inhibition, MCF-7/ADR; type: cell-based; settings: NCI/ADR-RES, 3H-thymidine incorporation, value without parentheses (not salt)
Description: MCF-7 a human breast tumor cell line and MCF-7/ADR an adriamycin resistant line of MCF-7 cells were obtained from the National Cancer Institute, Frederick, Md. CEM cells (ATCC accession number CCL 119) were obtained from the American Type Culture Collection, Rockville, Md. Human tumor cells are trypsinized (0.05% trypsin, GIBCO), counted with a hemacytometer and seeded at a concentration of 10,000 cells/well in a 96 well microtiter plate. After allowing cells to attach to the surface overnight, the culture medium is aspirated and replaced with 100 μl of fresh medium. Test agents are diluted to determine dose response at 2× final concentration and added in quadruplicate at 100 μl/well to bring the total volume of each well to 200 μl. The microtiter plate is then incubated at 37° C. 5% CO2 overnight (18-24 hrs) before ^3 H-thymidine is added at a concentration of 0.5 μCi/well in 50 μl culture medium. The plate is incubated again for 4 hrs under the same conditions as above. Supernatant is then aspirated and 50 μl trypsin (0.05%, GIBCO) is added to each well. Cells are checked microscopically to determine detachment from surfaces, and plates are then harvested with a cell harvester (PHD, Cambridge Technology, Inc.) Filter papers corresponding to wells are placed in scintillation vials and counted to determine the amount of ^3 H-thymidine incorporated by the cells. […]

[5] = tested on: PMA-stimulated neutrophils; test: Neutrophil Superoxide Anion (O2^-) Release Assay; type: cell-based, human; settings: Homo sapiens, Neutrophil; PMA-stimulated; value outside parentheses (not salt); read-out: Neutrophil Superoxide Release IC50
Procedure: Neutrophils are isolated form whole blood collected from human volunteers. All reagent materials are obtained from Sigma Chemical Company with the exception of isotonic saline (Travenol Laboratories, Inc., Deerfield, Ill.) and lymphocyte separation medium (Organon Teknika, Durham, N.C.).
Whole blood is drawn and mixed with sodium heparin (final conc. 10 units/ml) to prevent clotting. An equal volume of dextran (3.0%) in isotonic saline is added, mixed, and allowed to settle for 30 min to bind red blood cells (RBC). Supernatant is removed, underlayered with lymphocyte separation medium and centrifuged for 40 min at 400 xg in a centrifuge (Beckman GPR, Norcross, Ga). The pellet is alternately resuspended in 0.2% and 1.6% NaCl to lyse RBCs before washing with Hank's Balanced Salt Solution (HBSS). The washed pellet is resuspended in 10 mL HBSS and placed on ice before counting on a hemacytometer.
The neutrophil cell concentration is adjusted to 2×10^6 cells/ml with HBSS before adding 0.8 mL cells to 12×75 mm polypropylene test tubes (Fisher Scientific). Test agents are diluted to determine dose response and added at 10× final concentration at a volume of 0.1 mL/tube in duplicate. Then 10× concentrations of cytochrome C (15 mg/ml) with catalase (3000 units/ml) either alone or containing 25 ng/ml phorbol 12-myristate 13-acetate (PMA) are added at a volume of 0.1 mL/tube and incubated at 37° C. for 30 min before stopping the reaction by placing tubes on ice. Tubes are then centrifuged at 900 xg for 10 min, 0.5 mL supernatant is removed and added to 0.5 mL H2 O in a microcuvette. Optical density (OD) of cytochrome c is read in a spectrophotometer (Shimadzu) at 550 nm. The ΔOD of cytochrome c is obtained between PMA-stimulated and non-stimulated tubes, and the dose responses of the test agents are compared to the positive controls (which contain HBSS in place of test agents). PMA stimulates O2^- production which reduces cytochrome c. Reducing cytochrome c increases its absorbance, and the change in OD of cytochrome c is proportional to the amount of O2^- produced by PMA stimulation. Inhibition of the O2^- burst by test compounds of the invention is seen as a reduction in the change in optical density. Inhibition is expressed as IC50 μM and is the amount of test compound that will inhibit fifty percent of the PMA-stimulated respiratory outburst, i.e. O2^- production.

[6] = tested on: NHEK cells (proliferating keratinocytes); test: Human Keratinocyte Inhibition; type: cell-based; settings: 3H-thymidine incorporation, value outside parentheses (not salt), read-out: NHEK IC50
Procedure: Proliferating keratinocytes (NHEK cells purchased from Clonetics, Inc., San Diego, Calif.) in second passage were grown in Keratinocyte Growth Medium (KGM) (Clonetics, Inc.) Cells are trypsinized (0.025% trypsin, Clonetics), counted with a hemacytometer (Scientific Products), and seeded at a concentration of 2,500 cells/well in a 96 well microtiter plate. After allowing cells to attach to the surface overnight, the culture medium is aspirated and replaced with 100 μl of fresh KGM. […] IC50 is the concentration of test compound required to inhibit fifty percent of the incorporation of ^3 H-thymidine into proliferating cells not exposed to test agent.

Compound | IC50 ([1]; HCl salt) [µM] | IC50 ([1]; free base) [µM] | IC50 [2] [µM] | IC50 [3] [µM] | IC50 [4] [nM] | IC50 [5] [nM] | IC50 [6] [nM]
CCCCCCCCCCCCCCCC(=O)NCCCN1CCCCC1C (stereo not drawn) [Compound 11, 2-Methyl-l-[3-(N-hexadecanoyl)aminopropyl]piperidine] | 66 | 130 | > 217 | 4.1 | 2600 | 1800 | –
CCCCCCCCCCCCCCCC(=O)N(C)CCC[N+]1(C)CCOCC1 [Compound 16, 4-[N-hexadecanoyl-N-methyl-4-(3-aminopropyl)]-4-methylmorpholimium iodide] | – | 22 | 131 | 19.3 | > 25000 | – | 1400
